Data published in patent publication US9579380B2, “Microporation of tissue for delivery of bioactive agents” (priority 1996, dated 2017).

Assays:
[1] = tested on: healthy male volunteers; experiment: Alprostadil delivery through micropores on the penis shaft with ultrasonic transducer, clinical responses; assay type: in vivo, human; conditions: both subjects
Method: Alprostadil, or PGE1, is a prostaglandin used therapeutically to treat male erectile dysfunction via it's vasodilator behavior. The standard delivery mode for this drug is a direct injection into the base of the penis or via a suppository inserted into the urethra. A set of experiments were conducted with two healthy male volunteers. […] A concentrated solution of alprostadil was placed in a small reservoir patch placed on the poration site, an ultrasonic transducer was then placed on the top of the reservoir and activated and the subject's erectile and other clinical responses were recorded on video tape. Both subjects developed a significant amount of engorgement of the penis, estimated as achieving 70% of more of a full erection at the dose applied. In addition, a malar flush response to the systemic levels of the drug delivered was observed. […] Both the erectile response and the malar flush provide evidence of the delivery of a clinically active amount of the drug, a well know vasodilator.

[2] = human
[3] = Morphine delivery through porated volar forearm with positive pressure gradient, venous blood morphine; conditions: solution on porated volar forearm
Source text: A solution of morphine is applied to a porated area on the volar forearm of the human subjects. A positive pressure gradient is used to provide a basal delivery rate of the morphine into the body, as determined by assay of venous blood draws at appropriate time intervals for the presence of morphine. […] Upon demand, an additional pressure bolus is applied to result in a spike in the delivery of the morphine. The additional pressure bolus is achieved in one test by use of ultrasound; or in another experiment by the use of a pressure spike.

[4] = tested on: volar forearm of a healthy volunteer; experiment: Heparin delivery through micropores, passive or with iontophoresis, with microscopic examination of the site
Method: A heparin solution was applied to skin porated to a depth of approximately 100 μm, allowing either passive diffusion or coupled with iontophoresis (about 1 mA/cm^2) that was applied for a sufficient period of time to transport the heparin through the micropores into the underlying tissues. […] An experiment was conducted wherein a site on the volar forearm of a healthy volunteer was prepared by creating a matrix of 36 micropores within a 1 square cm area. A small reservoir containing a sodium heparin solution and the negative electrode for an iontophoretic system was attached to the site. The positive electrode was attached to the subject's skin some distance away using a hydrogel electrode obtained from Iomed, a commercial supplier of iontophoretic systems. The system was run for ten minutes at 0.2 milliamperes per square cm.

[5] = tested on: healthy non-diabetic subject; experiment: Insulin delivery through porated skin, finger stick blood glucose; assay type: in vivo, human
Source text: Insulin, like many compounds normally present in the healthy individual, is a polypeptide which must be maintained in individuals, such as diabetics who need exogenous insulin, at both a basal level and be given in a pulsatile bolus fashion in response to meals and the subject's activity levels. Currently this is achieved via subcutaneous injections of fast acting and slow acting formulations. Because of the molecular weight of insulin, typically ˜6000, it is not able to be delivered at clinically useful levels with traditional transdermal or transmucosal methods. However, by opening the micropores through the barrier layers of the skin or mucosa, a clear path is provided allowing the delivery of the insulin into the viable tissues wherein the interstitial fluid present in these tissues will allow diffusion (including osmotically driven) of the insulin to and into the lymph system and capillary bed, delivering clinically useful amounts. A concentrated insulin solution containing 3500 IU/ml of recombinant human insulin purchased from Boehringer-Mannhein Co., was applied in a reservoir to a porated of the subject's skin on the volar forearm covering 4 square cm. The healthy, person, non-diabetic, subject fasted for 14 hours prior to the start of the experiment. Intravenous and finger stick blood samples were drawn periodically prior to and after the delivery phase began and assayed for glucose, insulin and C-peptide.
The use of liposomes, lipid complexes, microspheres including nanospheres, PEGellated compounds (compounds combined with polyethylene glycol) and other microparticles as part of a drug delivery system is well developed for many different specific applications. In particular, when dealing with a compound which is easily broken down by the endogenous components in the body's tissues such as protease, nuclease, or carbohydrase enzymes in the skin, tissues, the macrophages or other cells present in the blood stream or lymph, increases in bio-availability and/or sustained […]. A repeat of this procedure with the addition of ultrasound operating at 44 khz, and 0.2 watts/square cm indicated a more rapid delivery of the insulin as evidenced by the subject's glucose levels which dropped from 109 mg/dl to 78 mg/dl less than 30 minutes after the delivery began. As in the case of example 45, for heparin delivery, a low current iontophoretic system can be coupled with the micropores to facilitate a greater flux rate and provide the ability to modulate this flux rate by varying the current, allowing a delivery on demand type of system to be built. Previous work with insulin has typically shown that relatively high iontophoretic currents are required to overcome the strong barrier properties of the intact stratum corneum. […]

## CCCCC[C@H](O)/C=C/[C@H]1[C@H](O)CC(=O)[C@@H]1CCCCCCC(=O)O [alprostadil, Alprostadil]
[1]; 12 to 36 micropores, roughly 100 microns deep, on 1 square cm, concentrated solution plus ultrasonic transducer
  engorgement of the penis, estimated share of a full erection: ≥ 70%
[1]; over a 30 to 60 minute delivery period
  malar flush response to systemic levels of the drug: profound malar flush

## CN(C)c1ccc2nc3ccc(=[N+](C)C)cc-3sc2c1 [methylene blue, Methylene blue]
[2]
  lag time of pulse of indicator molecules on application of sonic energy: < 0.1 s
  shutoff lag of pulse of indicator molecules on turning off sonic energy: < 0.1 s
[2]; 5 min
  level of dye solution in receiver medium (no visual indication of dye flux): < 0.0015 % (v/v)

## CN1CC[C@]23c4c5ccc(O)c4O[C@H]2[C@@H](O)C=C[C@H]3[C@H]1C5 [morphine]
[3]
  basal level of morphine in venous blood: 3 to 6 ng/mL

## heparin
[4]; 36 micropores in 1 square cm, iontophoresis 0.2 milliamperes per square cm for ten minutes
  clotting of red cells in collected ISF: no clotting took place
[4]; 36 micropores in 1 square cm, sodium heparin solution, iontophoresis 0.2 milliamperes per square cm for ten minutes
  microscopic examination of the site: vasodilation of the capillaries
[4]; skin porated to approximately 100 μm, passive diffusion and iontophoresis (about 1 mA/cm^2)
  microscopic examination of the in vivo site: increased capillary dilation and permeability

## insulin
[5]; 3500 IU/ml solution on 4 square cm porated volar forearm, passive
  time to depression of glucose levels: approximately 4 hours
[5]; 3500 IU/ml solution on 4 square cm porated volar forearm, passive, fasted 14 hours, from 100 mg/dl at the start, over a ten minute cycle
  finger stick blood glucose after depression: 67 mg/dL
[5]; with ultrasound at 44 khz and 0.2 watts/square cm
  time to glucose drop after delivery began: less than 30 minutes
[5]; with ultrasound at 44 khz and 0.2 watts/square cm, from 109 mg/dl
  glucose level after drop: 78 mg/dL
